The term IC50 denotes the concentration that inhibits the measured activity by half. By solubility is commonly meant how much of the substance goes into solution per volume.

This is an account of results in PMC6099615, “Anti-glycation, Carbonyl Trapping and Anti-inflammatory Activities of Chrysin Derivatives” (Molecules : A Journal of Synthetic Chemistry and Natural …, 2018).

Data set [1] relates to AGEs cross-linking. As to the kind of experiment: N-acetyl-glycyl-lysine-methyl ester D-ribose assay on AGE cross-linking. Format: biochemical. To be noted: GK peptide-D-ribose, 37 °C, 72 h. The method, then:
(§1) This test was used to evaluate the ability of samples to inhibit cross-linking of the GK peptide in the presence of D-ribose using the method described by Hwang et al. The GK peptide (26.7 mg/mL) was incubated with D-ribose (200 mg/mL) in sodium phosphate buffer (0.5 M, pH 7.4) containing 0.2 g/L NaN3 under sterile conditions at 37 °C for 72 h. […] All reagents and samples were sterilized by filtration through […] membrane filters. The fluorescence intensity was measured at an excitation wavelength of 355 nm and an emission wavelength of 460 nm with a Luminescence spectrometer LS50B (Perkin-Elmer Ltd., Buckinghamshire, England). AG was used as a positive control.

Data set [2] relates to Amadori compound formation. As to the kind of experiment: Hemoglobin-δ-gluconolactone assay of Amadori compound formation. It is filed as biochemical. Set-up: inhibition rate of Amadori compound formation: dose or concentration left out as unconfirmed.
Data set [3] has as its system AGE formation. Kind of data set: Bovine serum albumin-methylglyoxal assay on AGE formation. It is filed as biochemical. To be noted: BSA-methylglyoxal, 37 °C, 48 h. The method, then:
Bovine serum albumin (50 mg/mL) was incubated at 37 °C for 48 h with methylglyoxal (100 mM) in sodium phosphate buffer (0.1 M, pH 7.4) containing 0.2 g/L NaN3 in the presence of various concentrations of the compounds (including a control).
as §1

The nature of data set [4]: Water solubility analysis. It is filed as physicochemical. Here is the method:
CS and derivatives were dissolved in distilled water and incubated at 37 °C with sonication for 1 h to maximize solubility. After sonication, undissolved samples were eliminated by centrifugation (7000× g, 37 °C, 5 min). The supernatants were diluted in methanol and filtered through a 0.45 μm disposable syringe filter (Advantec, Dublin, CA, USA) to analyze the concentration of the samples using HPLC analysis.

Data set [5] relates to NO production in LPS-induced RAW 264.7 cells. Kind of data set: NO generation in LPS-induced RAW 264.7 cells (Griess). It is filed as cell-based. The note with it: 24 h. Here is the method:
The cytotoxicity of CS and derivatives on RAW 264.7 cells was examined using the MTS assay kit. Cells (1.6 × 10^4/well) were cultured in 96-well plates and treated with samples (10, 25, and 100 μM) for 12, 24, 48, and 72 h. After incubation, 20 μL/well of MTS solution was incubated for 90 min at 37 °C in a humidified 5% CO2 atmosphere. The optical density at 490 nm was measured three times using an EL-800 Universal microplate reader (Bio-Tek Instrument Inc., Winooski, VT, USA). Cell viability of the untreated group was set to 100%. RAW 264.7 cells were seeded into 12-well plates at 4 × 10^5-cells/well, and then incubated with LPS (1 μg/mL) and various concentrations of samples for 24 h. The concentration of nitric oxide (NO) in the medium was measured using the Griess reagent system, as described by the manufacturer. The production of NO was measured at 570 nm using an EL-800 Universal microplate reader (Bio-Tek Instrument Inc., Winooski, VT, USA), and was compared with a sodium nitrite standard calibration curve.
For orientation: Griess reagent forms a coloured azo dye with nitrite.

≈ marks a conversion by molar mass, not a printed value.

In the case of `CC(=O)Oc1cc(OC(C)=O)c2c(=O)cc(-c3ccccc3)oc2c1` [5,7-Di-O-acetylchrysin, 5,7-di-O-acetylchrysin], the IC50 worked out at 22300 nM in data set [1], 260 nM in data set [2] (early stage of AGE formation) and 910 nM in data set [3]. In addition, the “inhibition rate of Amadori compound formation” value in data set [2] (dose-dependent) is listed as 1.76–55.13%. The “inhibitory activity on Amadori compound formation, fold higher than positive control AG” value in data set [2] (relative to Aminoguanidine hydrochloride (IC50 = 109.74 μM)) came out at 422.07 fold. In data set [2] (relative to CS), the “inhibitory activity on Amadori compound formation, fold higher than CS” value stood at 66.96 fold. Moreover, the “water solubility, fold higher than CS” value in data set [4] (relative to CS) is 8.83 fold. The same compound registered a solubility at 1 h in data set [4] (thermodynamic from solid, distilled water, 37 °C, sonication 1 h) of 265 µM (≈ 89.7 µg/mL). The “inhibition of NO” value in data set [5] is listed as “concentration-dependent inhibition”.
